Measured values: ChEMBL document CHEMBL5252586, “2-[(2-Amino-6-methylpyrimidin-4-yl)sulfanyl]-N-arylacetamides: Discovery of a new class of anti-tubercular agents and prospects for their further structural modification” (Bioorg Med Chem Lett, 2023)
Values after ≈ are worked out from the molar mass of the structure shown. Active and inactive are the calls of the source. The rule behind the calls is not given here.

Tested on: Mycobacterium tuberculosis
Assay: Antimycobacterial activity against Mycobacterium tuberculosis H37Rv assessed as reduction in bacterial growth at 100 microg/ml
Type: functional, organism-based
Details: dose 100.0 µg/ml
For `Cc1ccc(NC(=O)CSc2cc(C)nc(N)n2)cc1`, the Activity was “inactive”.

Tested on: Mycobacterium tuberculosis
Assay: Antimycobacterial activity against Mycobacterium tuberculosis H37Rv assessed as reduction in bacterial growth
Type: functional
Details: not given
For `CC[C@@H](CO)NCCN[C@@H](CC)CO` [ETHAMBUTOL], the MIC was 5 mg/L (≈ 24.5 µM). Work on `Cc1cc(SCC(=O)Nc2cc(Cl)ccc2Cl)nc(N)n1` yielded an MIC of 1.5 mg/L (≈ 4.37 µM). `Cc1cc(SCC(=O)Nc2cccc(Cl)c2C)nc(N)n1` showed an MIC of 100 mg/L (≈ 310 µM). For `CO[C@H]1/C=C/O[C@@]2(C)Oc3c(C)c(O)c4c(O)c(c(/C=N/N5CCN(C)CC5)c(O)c4c3C2=O)NC(=O)/C(C)=C\C=C\[C@H](C)[C@H](O)[C@@H](C)[C@@H](O)[C@@H](C)[C@H](OC(C)=O)[C@@H]1C` [RIFAMPIN], the MIC was 0.5 mg/L (≈ 0.608 µM). In the case of `NNC(=O)c1ccncc1` [ISONIAZID], the MIC is reported as 0.1 mg/L (≈ 0.729 µM). In the case of `Cc1ccc(NC(=O)CSc2cc(C)nc(N)n2)c(C)c1`, the MIC is reported as 100 mg/L (≈ 331 µM). `Cc1cc(SCC(=O)Nc2ccc(C(C)C)cc2)nc(N)n1` gave an MIC of 1.5 mg/L (≈ 4.74 µM). `Cc1cc(SCC(=O)Nc2ccccc2)nc(N)n1` gave an MIC of 100 mg/L (≈ 364 µM). `Cc1cc(SCC(=O)Nc2ccc(F)cc2)nc(N)n1` showed an MIC of 100 mg/L (≈ 342 µM). With `Cc1cc(SCC(=O)Nc2cc(C(F)(F)F)ccc2Cl)nc(N)n1` the MIC was 25 mg/L (≈ 66.3 µM).

Tested on: not listed separately
Assay: Solubility of compound
Type: physicochemical
Details: not given
In the case of `Cc1cc(=O)[nH]c(N)n1`, the solubility is reported as “Soluble”.
